Among the data in patent publication US12653809B2, “Urea, amide, and substituted heteroaryl compounds for CBL-B inhibition” (Nurix Therapeutics, Inc., priority 2019, dated 2026) are IC50 values, retold here.

The target of the assay is T1, Cbl-b (truncated variant, UniProt number Q13191) (Homo sapiens, UniProt Q13191).
T1 construct: made in house
Put plainly: Cbl-b activity assay (TR-FRET, interaction of Cbl-b with UbcH5B-Ub). Conditions: high conditions: 100 mM NaCl, 60 nM Src kinase; 12 nM Cbl-b; read-out: Cbl-b activity IC50. The format is biochemical.

T1 sequence (Q13191 36-427): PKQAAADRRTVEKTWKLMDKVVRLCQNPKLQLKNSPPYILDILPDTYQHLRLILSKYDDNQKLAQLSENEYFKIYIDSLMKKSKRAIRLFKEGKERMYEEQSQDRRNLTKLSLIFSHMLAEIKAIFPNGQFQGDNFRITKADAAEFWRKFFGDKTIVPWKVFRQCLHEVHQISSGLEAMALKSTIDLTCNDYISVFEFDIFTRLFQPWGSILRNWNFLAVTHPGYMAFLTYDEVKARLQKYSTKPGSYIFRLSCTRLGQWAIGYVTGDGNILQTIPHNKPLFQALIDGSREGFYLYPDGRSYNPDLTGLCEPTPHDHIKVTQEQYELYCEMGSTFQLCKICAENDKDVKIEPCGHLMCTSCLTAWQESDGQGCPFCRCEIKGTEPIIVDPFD

Take `C[C@H](Sc1nncn1C)c1cccc(NC(=O)NC2CCCN(c3cccnn3)C2)c1` (stereo partly drawn) [Example 129, 1-(3-((S)-1-((4-methyl-4H-1,2,4-triazol-3-yl)thio)ethyl)phenyl)-3-(1-(pyridazin-3-yl)piperidin-3-yl)urea]: the 50% inhibitory concentration (IC50) is no less than 5 µM.
In the case of `C[C@H](Sc1nncn1C)c1cccc(NC(=O)N2CCC23CCOC3)c1` (stereo partly drawn) [Example 130, N-(3-((S)-1-((4-methyl-4H-1,2,4-triazol-3-yl)thio)ethyl)phenyl)-6-oxa-1-azaspiro[3.4]octane-1-carboxamide] it was no less than 5 µM; in that of `C[C@H](Sc1nncn1C)c1cccc(NC(=O)N2CCOC(CC(F)(F)F)C2)c1` (stereo partly drawn) [Example 131, N-(3-((S)-1-((4-methyl-4H-1,2,4-triazol-3-yl)thio)ethyl)phenyl)-2-(2,2,2-trifluoroethyl)morpholine-4-carboxamide], no less than 5 µM.
The value for `C[C@H](Sc1nncn1C)c1cccc(NC(=O)N2CC(C)(F)C2)c1` [Example 132, 3-fluoro-3-methyl-N-[3-[(1S)-1-[(4-methyl-4H-1,2,4-triazol-3-yl)sulfanyl]ethyl]phenyl]azetidine-1-carboxamide] was no less than 5 µM; that for `C[C@H](Sc1nncn1C)c1cccc(NC(=O)N2CC3(CCC3O)C2)c1` (stereo partly drawn) [Example 133, 5-hydroxy-N-(3-((S)-1-((4-methyl-4H-1,2,4-triazol-3-yl)thio)ethyl)phenyl)-2-azaspiro[3.3]heptane-2-carboxamide] was no less than 5 µM; that for `C[C@H](Sc1nncn1C)c1cccc(NC(=O)N2CC(S(C)(=O)=O)C2)c1` [Example 134, 3-methanesulfonyl-N-[3-[(1S)-1-[(4-methyl-4H-1,2,4-triazol-3-yl)sulfanyl]ethyl]phenyl]azetidine-1-carboxamide] was no less than 5 µM.
For `C[C@H](Sc1nncn1C)c1cccc(NC(=O)N2CCO[C@H]([C@H]3CCCO3)C2)c1` [Example 135, (S)—N-(3-((S)-1-((4-methyl-4H-1,2,4-triazol-3-yl)thio)ethyl)phenyl)-2-((R)-tetrahydrofuran-2-yl)morpholine-4-carboxamide], the IC50 is no less than 5 µM.
In the case of `C[C@H](Sc1nncn1C)c1cccc(NC(=O)N2CCO[C@@H]([C@H]3CCCO3)C2)c1` [Example 136, (R)—N-(3-((S)-1-((4-methyl-4H-1,2,4-triazol-3-yl)thio)ethyl)phenyl)-2-((R)-tetrahydrofuran-2-yl)morpholine-4-carboxamide] it was no less than 5 µM.
Take `CCN1CCc2nc(NC(=O)Nc3cccc([C@H](C)Sc4nncn4C)c3)sc2C1` [Example 137, (S)-1-(5-ethyl-4,5,6,7-tetrahydrothiazolo[5,4-c]pyridin-2-yl)-3-(3-(1-((4-methyl-4H-1,2,4-triazol-3-yl)thio)ethyl)phenyl)urea]: the IC50 was no less than 5 µM.
As for `C[C@H](Sc1nncn1C)c1cccc(NC(=O)N2CC3(CCCO3)C2)c1` [Example 138, N-[3-[(1S)-1-[(4-methyl-4H-1,2,4-triazol-3-yl)sulfanyl]ethyl]phenyl]-5-oxa-2-azaspiro[3.4]octane-2-carboxamide], the IC50 is no less than 5 µM.
The value for `C[C@H](Sc1nncn1C)c1cccc(NC(=O)N2CCC3(CNC(=O)C3)C2)c1` (stereo partly drawn) [Example 139, N-(3-((S)-1-((4-methyl-4H-1,2,4-triazol-3-yl)thio)ethyl)phenyl)-8-oxo-2,7-diazaspiro[4.4]nonane-2-carboxamide] was no less than 5 µM; that for `C[C@H](Sc1nncn1C)c1cccc(NC(=O)N2CC(C(=O)N3CCC(O)CC3)C2)c1` [Example 140, (S)-3-(4-hydroxypiperidine-1-carbonyl)-N-(3-(1-((4-methyl-4H-1,2,4-triazol-3-yl)thio)ethyl)phenyl)azetidine-1-carboxamide] was no less than 5 µM; that for `C[C@H](Sc1nncn1C)c1cccc(NC(=O)N2CC3(CCOC(=O)N3)C2)c1` [Example 141, (S)—N-(3-(1-((4-methyl-4H-1,2,4-triazol-3-yl)thio)ethyl)phenyl)-6-oxo-7-oxa-2,5-diazaspiro[3.5]nonane-2-carboxamide] was no less than 5 µM.
The value for `C[C@H](Sc1nncn1C)c1cccc(NC(=O)N2CCC2c2ccccc2)c1` (stereo partly drawn) [Example 142, N-(3-((S)-1-((4-methyl-4H-1,2,4-triazol-3-yl)thio)ethyl)phenyl)-2-phenylazetidine-1-carboxamide] was no less than 5 µM; that for `CC(CO)N(C)C(=O)Nc1cccc([C@H](C)Sc2nncn2C)c1` (stereo partly drawn) [Example 143, 1-(1-hydroxypropan-2-yl)-1-methyl-3-(3-((S)-1-((4-methyl-4H-1,2,4-triazol-3-yl)thio)ethyl)phenyl)urea] was no less than 5 µM; that for `CNS(=O)(=O)c1cc(NC(=O)Nc2cccc([C@H](C)Sc3nncn3C)c2)ccc1C` [Example 144, (S)—N,2-dimethyl-5-(3-(3-(1-((4-methyl-4H-1,2,4-triazol-3-yl)thio)ethyl)phenyl)ureido)benzenesulfonamide] was no less than 5 µM.
As for `C[C@H](Sc1nncn1C)c1cccc(NC(=O)N2Cc3nccnc3C2)c1` [Example 145, (S)—N-(3-(1-((4-methyl-4H-1,2,4-triazol-3-yl)thio)ethyl)phenyl)-5,7-dihydro-6H-pyrrolo[3,4-b]pyrazine-6-carboxamide], the IC50 was no less than 5 µM.
In the case of `C[C@H](Sc1nncn1C)c1cccc(NC(=O)N2CCOCC2CO)c1` (stereo partly drawn) [Example 146, 3-(hydroxymethyl)-N-(3-((S)-1-((4-methyl-4H-1,2,4-triazol-3-yl)thio)ethyl)phenyl)morpholine-4-carboxamide] it was no less than 5 µM; in that of `C[C@H](Sc1nncn1C)c1cccc(NC(=O)Nc2ccc(N3CCOCC3=O)cc2)c1` [Example 147, (S)-1-(3-(1-(4-methyl-4H-1,2,4-triazol-3-ylthio)ethyl)phenyl)-3-(4-(3-oxomorpholino)phenyl)urea], no less than 5 µM.
For the compound `COc1cc(N2CCOCC2)ccc1NC(=O)Nc1cccc([C@H](C)Sc2nncn2C)c1` [Example 148, (S)-1-(2-methoxy-4-morpholinophenyl)-3-(3-(1-((4-methyl-4H-1,2,4-triazol-3-yl)thio)ethyl)phenyl)urea], the IC50 is no less than 5 µM.
In the case of `C[C@H](Sc1nncn1C)c1cccc(NC(=O)N2CCN(c3cccnc3)CC2)c1` [Example 149, (S)—N-(3-(1-((4-methyl-4H-1,2,4-triazol-3-yl)thio)ethyl)phenyl)-4-(pyridin-3-yl)piperazine-1-carboxamide] it was no less than 5 µM; in that of `C[C@H](Sc1nncn1C)c1cccc(NC(=O)Nc2ccc(CC(=O)N(C)C)cc2)c1` [Example 150, (S)—N,N-dimethyl-2-(4-(3-(3-(1-((4-methyl-4H-1,2,4-triazol-3-yl)thio)ethyl)phenyl)ureido)phenyl)acetamide], no less than 5 µM; in that of `C[C@H](Sc1nncn1C)c1cccc(NC(=O)N2CCCC2)c1` [Example 151, N-[3-[(1S)-1-[(4-methyl-4H-1,2,4-triazol-3-yl)sulfanyl]ethyl]phenyl]pyrrolidine-1-carboxamide], no less than 5 µM.
The value for `CCn1cc(CN(C)C(=O)Nc2cccc([C@H](C)Sc3nncn3C)c2)cn1` [Example 152, (S)-1-((1-ethyl-1H-pyrazol-4-yl)methyl)-1-methyl-3-(3-(1-((4-methyl-4H-1,2,4-triazol-3-yl)thio)ethyl)phenyl)urea] was no less than 5 µM.
In the case of `C[C@H](Sc1nncn1C)c1cccc(NC(=O)N2CC(C(=O)N3CCC(O)C3)C2)c1` (stereo partly drawn) [Example 153, 3-(3-hydroxypyrrolidine-1-carbonyl)-N-(3-((S)-1-((4-methyl-4H-1,2,4-triazol-3-yl)thio)ethyl)phenyl)azetidine-1-carboxamide] it was no less than 5 µM; in that of `C[C@H](Sc1nncn1C)c1cccc(NC(=O)N2CCOC(c3ncon3)C2)c1` (stereo partly drawn) [Example 154, N-(3-((S)-1-((4-methyl-4H-1,2,4-triazol-3-yl)thio)ethyl)phenyl)-2-(1,2,4-oxadiazol-3-yl)morpholine-4-carboxamide], no less than 5 µM.
On to `C[C@H](Sc1nncn1C)c1cccc(NC(=O)N2CCN(C)CC2)c1` [Example 155, (S)-4-methyl-N-(3-(1-((4-methyl-4H-1,2,4-triazol-3-yl)thio)ethyl)phenyl)piperazine-1-carboxamide], for which the half-inhibitory concentration (IC50) is no less than 5 µM.
The value for `C[C@H](Sc1nncn1C)c1cccc(NC(=O)N2CCN(C3CC3)C(=O)C2)c1` [Example 156, (S)-4-cyclopropyl-N-(3-(1-((4-methyl-4H-1,2,4-triazol-3-yl)thio)ethyl)phenyl)-3-oxopiperazine-1-carboxamide] was no less than 5 µM.
The value for `C[C@H](Sc1nncn1C)c1cccc(NC(=O)N2CCC(c3ccccn3)C2)c1` (stereo partly drawn) [Example 157, N-(3-((S)-1-((4-methyl-4H-1,2,4-triazol-3-yl)thio)ethyl)phenyl)-3-(pyridin-2-yl)pyrrolidine-1-carboxamide] was no less than 5 µM; that for `C[C@H](Sc1nncn1C)c1cccc(NC(=O)Nc2ccc(S(=O)(=O)N(C)C)cc2)c1` [Example 158, (S)—N,N-dimethyl-4-(3-(3-(1-((4-methyl-4H-1,2,4-triazol-3-yl)thio)ethyl)phenyl)ureido)benzenesulfonamide] was no less than 5 µM; that for `C[C@H](Sc1nncn1C)c1cccc(NC(=O)NC2CCCN(C)C2)c1` (stereo partly drawn) [Example 159, 1-(3-((S)-1-((4-methyl-4H-1,2,4-triazol-3-yl)thio)ethyl)phenyl)-3-(1-methylpiperidin-3-yl)urea] was no less than 5 µM.
For the compound `CC(=O)N1CCC2(CCN(C(=O)Nc3cccc([C@H](C)Sc4nncn4C)c3)CC2)C1` [Example 160, (S)-2-acetyl-N-(3-(1-((4-methyl-4H-1,2,4-triazol-3-yl)thio)ethyl)phenyl)-2,8-diazaspiro[4.5]decane-8-carboxamide], the IC50 is no less than 5 µM.
The value for `C[C@H](Sc1nncn1C)c1cccc(NC(=O)NC2CCCCC2)c1` [Example 161, (S)-1-cyclohexyl-3-(3-(1-((4-methyl-4H-1,2,4-triazol-3-yl)thio)ethyl)phenyl)urea] was no less than 5 µM; that for `CC(=O)N1CCN(C(=O)Nc2cccc([C@H](C)Sc3nncn3C)c2)CC1` [Example 162, (S)-4-acetyl-N-(3-(1-(4-methyl-4H-1,2,4-triazol-3-ylthio)ethyl)phenyl)piperazine-1-carboxamide] was no less than 5 µM.
